We go through three molecules from patent US20230165183A1, “METHODS AND COMPOSITIONS FOR IMPROVED SEED GROWTH” (Cyprus University of Technology, priority 2021, published 2023).

Where two headings read alike, the source gives them in different places.

For one assay, the system named is Safflower. Particulars: Drought; cited from earlier work.
The test system of another assay is Rice. The conditions noted are these: cited from earlier work.
In assay [1] the test system is Maize. Particulars: cited from earlier work.
Assay [2] concerns Wheat. Particulars: cited from earlier work.
A further assay deals with tomato seeds. In words: Germination percentage of primed/coated tomato seeds five days after sowing. Format: in vivo. Particulars: tomato seeds primed with melatonin (Mel 1=50 μM, Mel 2=100 μM), 5 DAS, vs unprimed seeds; p<0.05. The method, then: FIG. 4 depicts germination percentage five days after sowing (5 DAS) in tomato seeds coated (pre-treated) with melatonin concentrations (Mel 1=50 μM, Mel 2=100 μM) in comparison with unprimed seeds (non-treated) and hydrogel coated seeds (Hydro).
Tomato seeds were primed with melatonin at the following concentrations: 5 μM, 10 μM, 15 μM, 25 μM, 50 μM, 100 μM, 200 μM, and 300 μM. Priming was performed by soaking the seeds in the desired melatonin concentration, then vacuum-drying the seeds.
FIG. 4 depicts germination percentage five days after sowing (5 DAS) in tomato seeds coated pre-treated with melatonin concentrations (Mel 1=50 μM, Mel 2=100 μM) in comparison with unprimed seeds (Non-treated) and hydrogel coated seeds (Hydro).

The test system of another assay is Corn. Particulars: Salt; cited from earlier work.
Another assay concerns Chickpea. The conditions noted are these: Drought; cited from earlier work.
Another assay deals with Pot Marigold. Particulars: Salt; cited from earlier work.
The next assay has as its system Pigeon Pea. Particulars: Calcium; cited from earlier work.
The subject of assay [3] is Wheat. Particulars: Salt; cited from earlier work.
The subject of the next assay is Sorghum. The conditions noted are these: Drought; cited from earlier work.
The subject of assay [4] is Maize. Particulars: Salt; cited from earlier work.
The subject of a further assay is Milk Thistle. The conditions noted are these: Salt; cited from earlier work.

As to `O=C(O)c1ccccc1O` [SA, salicyclic acid], the “Plant Response to SA” value in the assay with Safflower is listed as “Enhanced antioxidant activity”; in the assay with Rice (Chilling) it was “Enhanced antioxidant activity”; in the assay on Rice (Chromium) it was “Increased chlorophyll content”; in the assay with Maize [1] (Chilling), “Enhanced antioxidant activity”; with Maize [1] (Lead), “Increased nitric oxide content”; in the assay on Wheat [2] (Drought), “Balanced nutrient uptake”. The “Plant Response to SA” value with Wheat [2] (Osmotic) was “Increased tolerance”; with Wheat [2] (Salinity), “Decreased electrolyte leakage”.
For `COc1ccc2[nH]cc(CCNC(C)=O)c2c1` [melatonin], in the assay with tomato seeds, the germination percentage result is listed as “significantly increased germination percentage”.
gibberellin [GA]: the “Plant Response to GA” value in the assay on Corn is “Increased tissue water content”; with Chickpea it was “Increased relative water content”; in the assay on Pot Marigold it was “Increased tolerance”; with Pigeon Pea, “Increased germination”; in the assay on Wheat [3], “Increased tolerance”; with Sorghum, “Increased CAT and APX activities”. The “Plant Response to GA” value in the assay on Maize [4] and with Milk Thistle was “Alleviated salt stress” each time.
